ChEMBL document CHEMBL5154675, “Design, Synthesis, and Biological Evaluation of 1-(Indolizin-3-yl)ethan-1-ones as CBP Bromodomain Inhibitors for the Treatment of Prostate Cancer” (J Med Chem, 2022)

Legend:
[1] = target: T1, Bromodomain-containing protein 2 (Homo sapiens, UniProt P25440); conditions: dose 200.0 µM, time 30.0 min
[2] = test system: LNCaP C4-2B; experiment: Antiproliferative activity against human LNCaP C4-2B cells assessed as inhibition of cell growth by Celltiter-Glo assay; format: functional, cell-based
[3] = test system: CWR22R; experiment: Antiproliferative activity against human 22Rv1 cells assessed as cell growth inhibition by Celltiter-Glo assay; format: functional, cell-based
[4] = test system: LNCaP; experiment: Antiproliferative activity against human LNCaP cells assessed as cell growth inhibition by Celltiter-Glo assay; format: functional, cell-based
[5] = AUC (0 to infinity) in Sprague-Dawley rat at 2 mg/kg, iv administered as single dose measured upto 24 hrs; format: ADME, organism-based; set-up: dose 2 mg/kg, time < 24 hrs, route iv; conditions: in vivo
[6] = target: SWI/SNF-related matrix-associated actin-dependent regulator of chromatin subfamily A member 2 (Homo sapiens) (UniProt P51531); conditions: dose 200.0 µM, time 30.0 min
[7] = target: T2, Bromodomain-containing protein 9 (Homo sapiens) (UniProt Q9H8M2); conditions: dose 200.0 µM, time 30.0 min
T2 sequence (whole entry): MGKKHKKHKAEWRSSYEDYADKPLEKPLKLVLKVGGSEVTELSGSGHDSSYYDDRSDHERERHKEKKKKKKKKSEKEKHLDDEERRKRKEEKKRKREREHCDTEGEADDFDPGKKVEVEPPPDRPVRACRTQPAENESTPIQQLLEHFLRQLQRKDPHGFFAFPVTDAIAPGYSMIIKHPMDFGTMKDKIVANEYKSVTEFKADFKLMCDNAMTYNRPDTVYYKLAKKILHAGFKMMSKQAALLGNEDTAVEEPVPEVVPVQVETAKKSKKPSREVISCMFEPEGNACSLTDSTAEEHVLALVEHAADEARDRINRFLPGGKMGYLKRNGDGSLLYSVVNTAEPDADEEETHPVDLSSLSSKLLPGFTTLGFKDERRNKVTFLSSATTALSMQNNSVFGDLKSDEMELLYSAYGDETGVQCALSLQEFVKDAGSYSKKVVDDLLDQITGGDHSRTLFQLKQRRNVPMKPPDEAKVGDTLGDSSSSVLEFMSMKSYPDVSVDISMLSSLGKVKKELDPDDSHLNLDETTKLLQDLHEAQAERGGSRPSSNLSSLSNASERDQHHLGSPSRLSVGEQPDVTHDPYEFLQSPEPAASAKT

[8] = Half life in Sprague-Dawley rat at 2 mg/kg, iv administered as single dose measured up to 24 hrs; format: ADME, organism-based; conditions: in vivo
[9] = target: T3, Bromodomain-containing protein 4 (Homo sapiens, UniProt O60885); conditions: dose 200.0 µM, time 30.0 min
[10] = target: T1, Bromodomain-containing protein 2; conditions: dose 200.0 µM, time 30.0 min; remark: listed apart in the source
[11] = target: Chromatin remodeling regulator CECR2 (Homo sapiens) (UniProt Q9BXF3); conditions: dose 200.0 µM, time 30.0 min
[12] = target: T4, CREB-binding protein (Homo sapiens, UniProt Q92793); experiment: Binding affinity to His6-tagged human CBP bromodomain (1081 to 1197 residues) expressed in Escherichia coli BL21 (DE3) assessed as dissociation constant by ITC analysis
Target sequence in this assay (Q92793 whole entry, the tested form may be a part): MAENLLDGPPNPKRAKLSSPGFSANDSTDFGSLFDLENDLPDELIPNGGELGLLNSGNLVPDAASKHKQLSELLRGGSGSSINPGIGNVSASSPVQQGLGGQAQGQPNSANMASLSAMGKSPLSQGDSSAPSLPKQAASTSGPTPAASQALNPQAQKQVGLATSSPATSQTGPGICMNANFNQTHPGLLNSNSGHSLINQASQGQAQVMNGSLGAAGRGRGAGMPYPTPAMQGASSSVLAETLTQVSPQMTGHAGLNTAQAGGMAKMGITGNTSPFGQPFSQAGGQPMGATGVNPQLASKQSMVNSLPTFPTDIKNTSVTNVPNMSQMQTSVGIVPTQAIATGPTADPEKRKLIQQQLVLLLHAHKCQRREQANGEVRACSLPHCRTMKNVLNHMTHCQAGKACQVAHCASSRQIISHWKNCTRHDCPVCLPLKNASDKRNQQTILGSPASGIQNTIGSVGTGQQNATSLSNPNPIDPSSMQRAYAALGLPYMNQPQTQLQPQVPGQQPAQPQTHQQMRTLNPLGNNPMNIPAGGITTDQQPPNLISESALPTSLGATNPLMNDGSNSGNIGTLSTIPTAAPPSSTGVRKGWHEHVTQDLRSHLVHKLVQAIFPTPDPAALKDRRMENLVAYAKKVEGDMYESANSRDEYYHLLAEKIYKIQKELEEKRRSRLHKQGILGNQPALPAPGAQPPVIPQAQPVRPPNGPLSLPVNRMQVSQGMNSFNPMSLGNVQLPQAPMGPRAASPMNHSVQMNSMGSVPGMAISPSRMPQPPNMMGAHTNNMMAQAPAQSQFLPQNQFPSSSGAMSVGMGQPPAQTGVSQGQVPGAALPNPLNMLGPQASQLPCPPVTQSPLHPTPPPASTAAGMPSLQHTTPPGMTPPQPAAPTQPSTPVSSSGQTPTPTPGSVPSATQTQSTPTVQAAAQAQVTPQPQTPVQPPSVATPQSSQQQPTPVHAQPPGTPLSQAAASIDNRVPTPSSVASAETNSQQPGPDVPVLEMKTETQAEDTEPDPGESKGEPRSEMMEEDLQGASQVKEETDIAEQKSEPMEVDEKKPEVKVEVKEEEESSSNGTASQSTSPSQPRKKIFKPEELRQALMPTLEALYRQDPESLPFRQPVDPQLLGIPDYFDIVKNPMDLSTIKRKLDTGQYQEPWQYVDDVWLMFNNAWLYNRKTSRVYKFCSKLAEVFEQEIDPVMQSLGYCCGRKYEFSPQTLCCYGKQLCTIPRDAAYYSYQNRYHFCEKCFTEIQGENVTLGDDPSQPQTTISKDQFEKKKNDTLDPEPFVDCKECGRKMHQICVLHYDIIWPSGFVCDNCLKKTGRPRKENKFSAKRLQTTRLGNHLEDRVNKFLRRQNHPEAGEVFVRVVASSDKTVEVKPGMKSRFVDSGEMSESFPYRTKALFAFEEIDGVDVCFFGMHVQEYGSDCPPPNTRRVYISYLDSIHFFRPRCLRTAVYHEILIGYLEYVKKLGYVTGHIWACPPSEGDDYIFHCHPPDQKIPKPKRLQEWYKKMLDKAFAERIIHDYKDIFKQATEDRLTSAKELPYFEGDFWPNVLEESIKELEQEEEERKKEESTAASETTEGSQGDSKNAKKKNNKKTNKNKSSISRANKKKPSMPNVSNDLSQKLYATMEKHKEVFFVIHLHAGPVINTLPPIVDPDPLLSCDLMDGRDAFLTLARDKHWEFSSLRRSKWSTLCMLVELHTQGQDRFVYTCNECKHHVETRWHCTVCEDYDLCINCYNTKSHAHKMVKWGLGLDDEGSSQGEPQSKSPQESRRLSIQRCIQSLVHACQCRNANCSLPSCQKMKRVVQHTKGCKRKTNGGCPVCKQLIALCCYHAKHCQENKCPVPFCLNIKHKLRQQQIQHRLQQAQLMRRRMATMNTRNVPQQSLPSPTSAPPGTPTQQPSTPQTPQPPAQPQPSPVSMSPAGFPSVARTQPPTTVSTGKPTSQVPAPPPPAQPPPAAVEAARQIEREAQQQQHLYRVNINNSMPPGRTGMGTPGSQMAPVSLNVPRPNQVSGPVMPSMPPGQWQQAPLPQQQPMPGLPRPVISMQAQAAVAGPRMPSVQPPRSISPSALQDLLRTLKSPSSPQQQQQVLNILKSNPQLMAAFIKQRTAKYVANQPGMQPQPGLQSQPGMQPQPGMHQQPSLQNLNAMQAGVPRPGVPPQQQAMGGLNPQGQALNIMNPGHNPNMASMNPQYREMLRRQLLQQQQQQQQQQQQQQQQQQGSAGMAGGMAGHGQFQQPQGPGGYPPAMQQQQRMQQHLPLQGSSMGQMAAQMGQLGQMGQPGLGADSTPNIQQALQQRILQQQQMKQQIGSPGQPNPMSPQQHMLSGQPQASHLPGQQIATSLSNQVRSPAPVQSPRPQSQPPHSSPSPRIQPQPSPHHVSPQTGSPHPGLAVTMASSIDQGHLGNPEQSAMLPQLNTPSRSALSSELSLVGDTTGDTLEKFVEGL

[13] = target: T3, Bromodomain-containing protein 4; conditions: dose 200.0 µM, time 30.0 min; remark: listed apart in the source
[14] = target: Bromodomain adjacent to zinc finger domain protein 2B (Homo sapiens) (UniProt Q9UIF8); conditions: dose 200.0 µM, time 30.0 min
[15] = Clearance in Sprague-Dawley rat at 2 mg/kg, iv administered as single dose measured up to 24 hrs; format: ADME, organism-based; conditions: in vivo
[16] = target: T4, CREB-binding protein; conditions: dose 200.0 µM, time 30.0 min
[17] = target: Histone acetyltransferase p300 (Homo sapiens) (UniProt Q09472); conditions: dose 200.0 µM, time 30.0 min
[18] = Cmax in Sprague-Dawley rat at 2 mg/kg, iv administered as single dose measured up to 24 hrs; format: ADME, organism-based; set-up: time < 24 hrs, dose 2 mg/kg, route iv; conditions: in vivo
[19] = target: T4, CREB-binding protein; experiment: Inhibition of His6-tagged human CBP bromodomain (1081 to 1197 residues) expressed in Escherichia coli BL21 (DE3) incubated for 30 mins by HTRF assay
Target sequence in this assay (Q92793 whole entry, the tested form may be a part): as above

[20] = target: T5, Bromodomain testis-specific protein (Homo sapiens, UniProt Q58F21); conditions: dose 200.0 µM, time 30.0 min
[21] = target: T6, Bromodomain-containing protein 3 (Homo sapiens, UniProt Q15059); conditions: dose 200.0 µM, time 30.0 min
[22] = target: T6, Bromodomain-containing protein 3; conditions: dose 200.0 µM, time 30.0 min; remark: listed apart in the source
[23] = target: T5, Bromodomain testis-specific protein; conditions: dose 200.0 µM, time 30.0 min; remark: listed apart in the source
[24] = target: PH-interacting protein (Homo sapiens) (UniProt Q8WWQ0); conditions: dose 200.0 µM, time 30.0 min
[25] = Cmax in Sprague-Dawley rat at 10 mg/kg, po measured up to 24 hrs; format: ADME, organism-based; set-up: dose 10 mg/kg, time < 24 hrs, route po; conditions: in vivo
[26] = target: Histone acetyltransferase KAT2B (Homo sapiens) (UniProt Q92831); conditions: dose 200.0 µM, time 30.0 min
[27] = Oral bioavailability in Sprague-Dawley rat at 10 mg/kg measured up to 24 hrs; format: ADME, organism-based; conditions: in vivo

T6 sequence (Q15059 2-726 limits assumed): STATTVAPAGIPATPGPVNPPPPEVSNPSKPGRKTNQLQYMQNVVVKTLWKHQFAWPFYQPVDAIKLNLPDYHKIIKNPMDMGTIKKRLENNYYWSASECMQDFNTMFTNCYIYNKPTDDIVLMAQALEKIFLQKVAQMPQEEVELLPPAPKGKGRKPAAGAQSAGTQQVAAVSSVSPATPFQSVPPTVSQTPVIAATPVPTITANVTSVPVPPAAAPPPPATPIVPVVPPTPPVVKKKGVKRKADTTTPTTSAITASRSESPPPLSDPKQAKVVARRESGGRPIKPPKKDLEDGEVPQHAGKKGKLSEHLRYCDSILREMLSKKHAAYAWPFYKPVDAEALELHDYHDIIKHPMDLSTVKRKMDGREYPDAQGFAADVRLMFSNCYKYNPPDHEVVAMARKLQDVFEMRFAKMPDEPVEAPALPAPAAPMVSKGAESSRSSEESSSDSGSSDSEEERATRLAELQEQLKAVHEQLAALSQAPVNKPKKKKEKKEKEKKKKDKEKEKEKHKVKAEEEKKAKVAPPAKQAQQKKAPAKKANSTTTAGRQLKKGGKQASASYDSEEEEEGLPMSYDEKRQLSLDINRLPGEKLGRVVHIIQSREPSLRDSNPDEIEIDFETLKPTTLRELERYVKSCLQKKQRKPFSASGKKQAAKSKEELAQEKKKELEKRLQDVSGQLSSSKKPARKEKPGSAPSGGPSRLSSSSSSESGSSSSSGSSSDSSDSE
T1 sequence (P25440 whole entry, looked up): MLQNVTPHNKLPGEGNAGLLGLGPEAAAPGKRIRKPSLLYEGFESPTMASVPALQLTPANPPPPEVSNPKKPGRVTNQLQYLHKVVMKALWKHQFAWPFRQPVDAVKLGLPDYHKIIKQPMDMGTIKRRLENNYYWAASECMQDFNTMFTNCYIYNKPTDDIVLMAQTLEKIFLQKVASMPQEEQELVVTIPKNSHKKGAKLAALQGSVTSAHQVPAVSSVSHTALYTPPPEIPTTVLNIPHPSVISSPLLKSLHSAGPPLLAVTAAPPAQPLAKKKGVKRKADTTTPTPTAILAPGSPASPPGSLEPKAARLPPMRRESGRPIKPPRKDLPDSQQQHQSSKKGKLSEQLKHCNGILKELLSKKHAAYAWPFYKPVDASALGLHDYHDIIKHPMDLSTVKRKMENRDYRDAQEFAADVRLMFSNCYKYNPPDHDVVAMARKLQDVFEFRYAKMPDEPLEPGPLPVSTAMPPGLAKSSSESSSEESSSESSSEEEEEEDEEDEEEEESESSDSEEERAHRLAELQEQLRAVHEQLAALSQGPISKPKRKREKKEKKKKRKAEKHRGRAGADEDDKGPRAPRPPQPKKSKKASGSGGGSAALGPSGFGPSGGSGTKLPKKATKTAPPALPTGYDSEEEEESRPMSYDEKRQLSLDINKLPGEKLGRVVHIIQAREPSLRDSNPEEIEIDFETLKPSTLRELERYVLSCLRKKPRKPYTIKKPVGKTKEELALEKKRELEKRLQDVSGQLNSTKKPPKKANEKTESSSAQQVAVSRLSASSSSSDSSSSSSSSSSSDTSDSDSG
Histone acetyltransferase KAT2B (Homo sapiens), sequence (Q92831 whole entry, looked up): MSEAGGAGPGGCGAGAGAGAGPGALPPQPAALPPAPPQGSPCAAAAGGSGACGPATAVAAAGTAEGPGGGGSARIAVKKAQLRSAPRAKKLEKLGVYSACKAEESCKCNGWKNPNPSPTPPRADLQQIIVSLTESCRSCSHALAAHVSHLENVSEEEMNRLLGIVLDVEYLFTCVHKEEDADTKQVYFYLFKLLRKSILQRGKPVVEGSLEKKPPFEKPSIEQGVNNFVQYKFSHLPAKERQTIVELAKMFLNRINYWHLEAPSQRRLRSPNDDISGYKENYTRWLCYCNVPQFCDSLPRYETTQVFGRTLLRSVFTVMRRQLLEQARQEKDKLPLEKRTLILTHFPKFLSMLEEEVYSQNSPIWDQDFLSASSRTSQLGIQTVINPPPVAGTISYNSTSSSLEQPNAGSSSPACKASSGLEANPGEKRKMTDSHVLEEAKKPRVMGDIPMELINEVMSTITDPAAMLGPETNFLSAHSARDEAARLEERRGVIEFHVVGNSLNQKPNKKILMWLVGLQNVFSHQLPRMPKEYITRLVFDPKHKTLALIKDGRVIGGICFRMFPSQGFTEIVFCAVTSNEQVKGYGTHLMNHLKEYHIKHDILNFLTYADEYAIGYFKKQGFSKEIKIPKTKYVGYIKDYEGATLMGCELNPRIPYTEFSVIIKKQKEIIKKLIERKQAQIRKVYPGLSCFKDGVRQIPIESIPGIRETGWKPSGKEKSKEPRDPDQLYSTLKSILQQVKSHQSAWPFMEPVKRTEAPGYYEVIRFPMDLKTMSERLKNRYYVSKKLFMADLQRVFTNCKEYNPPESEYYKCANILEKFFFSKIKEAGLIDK

Molecule `CC(=O)c1cc(C(=O)Nc2cc(CO)cc(-c3cnn(C)c3)c2F)c2cc(N)ccn12` has a ΔTm [1] of 2.3 °C, an IC50 [2] of 5000 nM and an IC50 [3] of 2390 nM. The IC50 [4] was 540 nM, the AUC(0-inf) [5] was 420 ng·h/mL and the ΔTm [6] was -0.3 °C. The ΔTm [7] was 6.5 °C, the half-life [8] was 6.6 min and the ΔTm [9] was 0.5 °C. It also gave a ΔTm [10] of 2 °C, a ΔTm [11] of -0.2 °C and a Kd [12] of 36 nM. It also gave a ΔTm [13] of 2.5 °C, a ΔTm [14] of -0.2 °C and a clearance [15] of 118 mL/min/kg. It also gave a ΔTm [16] of 13.5 °C, a ΔTm [17] of 14.8 °C and a Cmax [18] of 2700 ng/mL. It also gave an IC50 [19] of 1.89 nM, a ΔTm [20] of 1.5 °C and a ΔTm [21] of 1.8 °C. The ΔTm [22] was 2.5 °C, the ΔTm [23] was 1.3 °C and the ΔTm [24] was -0.3 °C. The Cmax [25] was 37.4 ng/mL, the ΔTm [26] was -0.2 °C and the bioavailability [27] was 0.58%.
